Reference: patent US9775843B2, “Treatment and/or prophylaxis of TSPO mediated diseases and/or disorders” (GRÜNENTHAL GMBH, priority 2012, dated 2017)

The compounds below were run against T1, rat peripheral BZD receptor (Rattus norvegicus, UniProt P16257) (assay: radioligand binding test, [3H]PK 11195, rat heart membranes). Conditions: 10 μM test compound; 0.2 nM [3H]PK 11195; rat heart membrane homogenates; 15 min at 22° C.
T1 construct: rat heart membranes and [3H]PK 11195; from tissue; host or cells: rat heart membrane homogenates
Description: Evaluation of the in vitro affinity of test substances for the rat peripheral BZD receptor was performed according to Le Fur et al. (1983). Life Sci., 33: 449-457. For this purpose, rat heart membranes and [3H]PK 11195 (1-(2-chlorophenyl)-N-methyl-N-(1-methylpropyl)-3-isoquinolinecarboxamide) were used in a radioligand binding test system.
In detail, membrane homogenates of heart (20 μg protein) are incubated for 15 min at 22° C. with 0.2 nM [3H]PK 11195 in the absence or presence of the test compound in a buffer containing 50 mM Tris-HCl (pH 7.4) and 10 mM MgCl2 (96-well plate format). Compound addition is 100× solution in solvent. Nonspecific binding is determined in the presence of 10 μM PK 11195. Following incubation, the samples are filtered rapidly under vacuum through glass fiber filters (GF/B, Packard) presoaked with 0.3% PEI and rinsed several times with ice-cold 50 mM Tris-HCl using a 96-sample cell harvester (Unifilter, Packard). The filters are dried, then counted for radioactivity in a scintillation counter (Topcount, Packard) using a scintillation cocktail (Microscint 0, Packard). The results are expressed as a percent inhibition of the control radioligand specific binding.
The standard reference compound is PK 11195, which is tested in each experiment concurrently with the test compounds.
For analysis, the specific ligand binding to the receptors is defined as the difference between the total binding and the nonspecific binding determined in the presence of an excess of unlabelled ligand. The results are expressed as a percent of control specific binding ((measured specific binding/control specific binding)×100) obtained in the presence of the test compounds.
For `Cc1c(C(=O)NCc2cccc(F)c2)c(C(C)C)nc2cc(C(F)(F)F)ccc12` [compound 1, N-[(3-Fluorophenyl)-methyl]-2-isopropyl-4-methyl-7-(trifluoromethyl)-quinoline-3-carboxylic acid amide], the inhibition at 10 µM was 87%. `CCSc1nc(N2CCOCC2)cc(C)c1C(=O)NCCCC(C)(C)C` [compound 2, N-(4,4-Dimethyl-pentyl)-2-ethylsulfanyl-4-methyl-6-morpholin-4-yl-pyridine-3-carboxylic acid amide] gave an inhibition at 10 µM of 43%. Compound `CCSc1nc(N2CCOCC2)cc(C)c1C(=O)NCc1ccc(Cl)cc1` [compound 3, N-[(4-Chlorophenyl)-methyl]-2-ethylsulfanyl-4-methyl-6-morpholin-4-yl-pyridine-3-carboxylic acid amide] has an inhibition at 10 µM of 91%. `COc1nc(N2CCOCC2)cc(C)c1C(=O)NCc1ccc(Cl)cc1` [compound 4, N-[(4-Chlorophenyl)-methyl]-2-methoxy-4-methyl-6-morpholin-4-yl-pyridine-3-carboxylic acid amide] showed an inhibition at 10 µM of 49%. Work on `O=C(NCc1ccc(F)cc1)c1cccnc1SCCC(F)(F)c1ccc(F)cc1` [compound 5, 2-[[3,3-Difluoro-3-(4-fluorophenyl)-propyl]sulfanyl]-N-[(4-fluorophenyl)-methyl]-pyridine-3-carboxylic acid amide] yielded an inhibition at 10 µM of 102%. With `O=C(NCC1CC2CCC1C2)c1cccnc1SCCC(F)(F)c1ccc(F)cc1` (stereo not drawn) [compound 6, N-(5-Bicyclo[2.2.1]heptanyl-methyl)-2-[[3,3-difluoro-3-(4-fluorophenyl)-propyl]sulfanyl]-pyridine-3-carboxylic acid amide] the inhibition at 10 µM was 99%. For `Cc1cc(N2CCOCC2)nc(C2CC2)c1C(=O)NCc1ccc(Cl)cc1` [compound 7, N-[(4-Chlorophenyl)-methyl]-2-cyclopropyl-4-methyl-6-morpholin-4-yl-pyridine-3-carboxylic acid amide], the inhibition at 10 µM was 57%. Work on `COc1nc(N2CCOCC2)cc(C)c1C(=O)NCc1cccc(F)c1` [compound 8, N-[(3-Fluorophenyl)-methyl]-2-methoxy-4-methyl-6-morpholin-4-yl-pyridine-3-carboxylic acid amide] yielded an inhibition at 10 µM of 103%. `COc1nc(N2CCOCC2)cc(C)c1C(=O)NCc1ccc(F)cc1` [compound 9, N-[(4-Fluorophenyl)-methyl]-2-methoxy-4-methyl-6-morpholin-4-yl-pyridine-3-carboxylic acid amide] showed an inhibition at 10 µM of 53%. With `CCCc1nc(N2CCOCC2)cc(C)c1C(=O)NCc1cccc(F)c1` [compound 10, N-[(3-Fluorophenyl)-methyl]-4-methyl-6-morpholin-4-yl-2-propyl-pyridine-3-carboxylic acid amide] the inhibition at 10 µM was 91%. Work on `Cc1cc(N2CCOCC2)nc(C2CC2)c1C(=O)NCc1ccc(F)cc1` [compound 11, 2-Cyclopropyl-N-[(4-fluorophenyl)-methyl]-4-methyl-6-morpholin-4-yl-pyridine-3-carboxylic acid amide] yielded an inhibition at 10 µM of 87%. Work on `CC(C)CCNC(=O)c1cccnc1SCCC(F)(F)c1ccc(F)c(F)c1` [compound 12, 2-[[3-(3,4-Difluoro-phenyl)-3,3-difluoro-propyl]-sulfanyl]-N-(3-methyl-butyl)-pyridine-3-carboxylic acid amide] yielded an inhibition at 10 µM of 97%. `CCSc1nc(N2CCOCC2)cc(C)c1C(=O)NCc1cccc(F)c1` [compound 13, 2-Ethylsulfanyl-N-[(3-fluorophenyl)-methyl]-4-methyl-6-morpholin-4-yl-pyridine-3-carboxylic acid amide] showed an inhibition at 10 µM of 95%. In the case of `Cc1cc(N2CCOCC2)nc(C2CC2)c1C(=O)NCc1cccc(F)c1` [compound 15, 2-Cyclopropyl-N-[(3-fluorophenyl)-methyl]-4-methyl-6-morpholin-4-yl-pyridine-3-carboxylic acid amide], the inhibition at 10 µM is reported as 90%. With `CC(C)CCNC(=O)c1cccnc1SCCC(F)(F)c1ccc(F)cc1` [compound 16, 2-[[3,3-Difluoro-3-(4-fluorophenyl)-propyl]sulfanyl]-N-(3-methyl-butyl)-pyridine-3-carboxylic acid amide] the inhibition at 10 µM was 96%.
